Measurements from patent US20210361741A1, “NANOPARTICLE FORMULATIONS AND METHODS OF USE FOR ALPHA CONNEXIN C-TERMINAL PEPTIDES” (FIRSTSTRING RESEARCH, INC., priority 2018, published 2021).

System: U87MG GBM cells
Assay: Xenograft GBM mouse model
Format: in vivo
Conditions: TMZ alone, 7.5 mg/kg i.p. every other day
Procedure: Effect of αCT1-NP in a xenograft GBM mouse model. To assess the in vivo safety and efficacy of αCT1-NPs, a mouse xenograft model of GBM was employed U87MG GBM cells were cultured and 1×10^6 cells were mixed with 100 μL of Matrigel® Matrix and subcutaneously injected into the flanks of SCID/beige anesthetized mice using 23 gauge needles. After 8 days, mice were divided into 2 groups: (i) TMZ alone, and (ii) TMZ+αCT1 particles. The treatment regimen was as follows: TMZ (7.5 mg/kg) was administered by intraperitoneal injection with an insulin syringe every other day starting on day 8 for both groups 1 and 2 mice. αCT1 particles were reconstituted in 1×PBS from −80° C. storage and 100 uL aliquots were prepared and stored at −20° C. The concentration of αCT1 delivered in 1 dose of particles (100 uL) was approximately 8 μM at 1.2 mg particles/kg of mouse body weight. αCT1 particles were delivered at the tumor growth site every other day starting on day 10 for group 2 mice using insulin syringes. Group 2 mice received a total of 6 injections of particles during the course of treatment. This treatment regimen continued for 13 days. Tumor sizes were measured every other day using a caliper. Tumor volume was calculated ((length×width2)/2).

## Cn1nnc2c(C(N)=O)ncn2c1=O [TMZ, temozolomide]
  tumor volume: no effect
